Laboratory results reported in patent US12497642B2, “Incorporation of unnatural nucleotides and methods of use in vivo thereof” (THE SCRIPPS RESEARCH INSTITUTE, priority 2017, dated 2025).
Where “and” joins values, the source holds several entries; their conditions need not be identical. Equal values may be shown once.

What was measured:
[1] = system: semi-synthetic organism (SSO) (strain YZ3); test: Replication and UBP retention in vivo in the semi-synthetic organism (streptavidin biotin shift, PAGE), Example 1; assay type: cell-based, Escherichia coli; conditions: for UBP retention in vivo, in words: discussion
Method: All bacteria were cultured in 100 μL of liquid 2×YT media (casein peptone 16 g/L, yeast extract 10 g/L, NaCl 5 g/L) supplemented with potassium phosphate (50 mM, pH 7) in 96-well microwell plates. When noted, antibiotics were used at the following concentrations: chloramphenicol, 5 μg/mL; ampicillin, 100 μg/mL. Cell growth, indicated as OD600, was measured using a Perkin Elmer EnVision 2103 Multilabel Reader with a 590/20 nm filter. Unless otherwise stated, molecular biology reagents were purchased from New England Biolabs (Ipswich, MA) and were used according to the manufacturer's protocols. As necessary, purification of nucleic acids was accomplished by micro-elution columns (Zymo Research Corp; Irvine, CA). All natural oligonucleotides were purchased from IDT (San Diego, CA), and oligonucleotides containing dNaM were synthesized by Biosearch Technologies (Petaluma, CA) with purification by reverse phase cartridge. Unnatural nucleotide triphosphates were prepared, and confirmed by MALDI-TOF and UV/Vis.
Plasmids containing the dNaM-dTPT3 UBP were prepared and used to transform the semi-synthetic organism (SSO). To create a template for in vivo replication assays, Golden Gate assembly was used to construct a derivative of the pUC19 plasmid in which a single dNaM-dTPT3 UBP was embedded within the TK1 sequence ([…]; […]), a context within which the UBP is well replicated in the SSO. Plasmids were then used to transform the SSO (strain YZ3). Following transformation, the SSO was allowed to recover at 37° C. for 1 h in media containing dNaMTP (125 μM) and dTPT3TP (25 μM). Cells were pelleted by centrifugation, resuspended in fresh media lacking unnatural triphosphates, split into 100-μL aliquots and then used to inoculate cultures containing different pairs of unnatural triphosphates at the specified concentrations. When the cell density reached an OD600 of ˜0.7, cells were pelleted and plasmids were recovered and PCR amplified with d5SICSTP and a biotinylated analog of dNaMTP, and UBP retention was determined by comparing the intensity of the streptavidin shifted and unshifted bands via PAGE.

[2] = target: T1, Klenow fragment of E. coli DNA polymerase I (Escherichia coli, UniProt P00582); test: Steady-state kinetic assay of unnatural triphosphate insertion; assay type: biochemical; conditions: insertion opposite dY = dA in template
T1 construct: the Klenow fragment of E. coli DNA polymerase I
T1 sequence (P00582 324-928): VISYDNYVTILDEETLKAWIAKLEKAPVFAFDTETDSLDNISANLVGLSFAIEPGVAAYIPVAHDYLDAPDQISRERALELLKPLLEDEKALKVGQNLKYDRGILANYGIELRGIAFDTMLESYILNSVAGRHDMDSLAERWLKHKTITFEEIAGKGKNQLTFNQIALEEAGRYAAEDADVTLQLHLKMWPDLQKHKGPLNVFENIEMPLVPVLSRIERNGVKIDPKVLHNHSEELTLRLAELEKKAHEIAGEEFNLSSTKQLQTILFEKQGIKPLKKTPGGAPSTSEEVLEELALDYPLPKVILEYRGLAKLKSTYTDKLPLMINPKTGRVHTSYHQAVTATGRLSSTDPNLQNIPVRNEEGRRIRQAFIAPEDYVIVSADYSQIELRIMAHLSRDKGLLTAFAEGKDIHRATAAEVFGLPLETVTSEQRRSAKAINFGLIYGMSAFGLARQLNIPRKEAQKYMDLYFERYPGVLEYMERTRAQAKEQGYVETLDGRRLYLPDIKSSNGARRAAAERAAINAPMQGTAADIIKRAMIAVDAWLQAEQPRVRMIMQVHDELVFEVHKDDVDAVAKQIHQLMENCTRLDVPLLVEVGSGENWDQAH

[3] = context 1, dNaMTP 125 μM, dTPT3TP analog 125 μM
[4] = context 2 (AXA), dTPT3TP 2.5 μM, dNaMTP analog 2.5 μM
[5] = context 2 (AXA), dTPT3TP 2.5 μM, dNaMTP analog 10 μM
[6] = context 2 (AXA), dTPT3TP 2.5 μM, dNaMTP analog 25 μM
[7] = context 2 (AXA), dTPT3TP 10 μM, dNaMTP analog 2.5 μM
[8] = context 2 (AXA), dTPT3TP 10 μM, dNaMTP analog 10 μM
[9] = context 2 (AXA), dTPT3TP 10 μM, dNaMTP analog 25 μM
[10] = context 2 (AXA), dTPT3TP 25 μM, dNaMTP analog 2.5 μM
[11] = context 2 (AXA), dTPT3TP 25 μM, dNaMTP analog 10 μM
[12] = context 2 (AXA), dTPT3TP 25 μM, dNaMTP analog 25 μM
[13] = context 2 (AXA), paired with dSICSTP 10 μM, dNaMTP analog 25 μM
[14] = context 3 (CXC), dTPT3TP 2.5 μM, dNaMTP analog 2.5 μM
[15] = context 3 (CXC), dTPT3TP 2.5 μM, dNaMTP analog 10 μM
[16] = context 3 (CXC), dTPT3TP 2.5 μM, dNaMTP analog 25 μM
[17] = context 3 (CXC), dTPT3TP 10 μM, dNaMTP analog 2.5 μM
[18] = context 3 (CXC), dTPT3TP 10 μM, dNaMTP analog 10 μM
[19] = context 3 (CXC), dTPT3TP 10 μM, dNaMTP analog 25 μM
[20] = context 3 (CXC), dTPT3TP 25 μM, dNaMTP analog 2.5 μM
[21] = context 3 (CXC), dTPT3TP 25 μM, dNaMTP analog 10 μM
[22] = context 3 (CXC), dTPT3TP 25 μM, dNaMTP analog 25 μM
[23] = dNaMTP analog paired with dTPT3TP

Compound	UBP retention [1, 3]	UBP retention (%) [1, 4] [%]	UBP retention (%) [1, 5] [%]	UBP retention (%) [1, 6] [%]	UBP retention (%) [1, 7] [%]	UBP retention (%) [1, 8] [%]	UBP retention (%) [1, 9] [%]	UBP retention (%) [1, 10] [%]	UBP retention (%) [1, 11] [%]	UBP retention (%) [1, 12] [%]	UBP retention [1, 13] [%]	UBP retention (%) [1, 14] [%]	UBP retention (%) [1, 15] [%]	UBP retention (%) [1, 16] [%]	UBP retention (%) [1, 17] [%]	UBP retention (%) [1, 18] [%]	UBP retention (%) [1, 19] [%]	UBP retention (%) [1, 20] [%]	UBP retention (%) [1, 21] [%]	UBP retention (%) [1, 22]	also measured
Cc1ccc2ccn(C3CC(O)C(COP(=O)(O)OP(=O)(O)OP(=O)(O)O)O3)c(=S)c2c1 (stereo not shown) [d4SICS]	significant UBP retention																				
COc1cc(C)c(F)cc1C1CC(O)C(COP(=O)(O)OP(=O)(O)OP(=O)(O)O)O1 (stereo not shown) [d5FMTP]		47 ± 14	61 ± 27	75 ± 6	69 ± 6	83 ± 5	87 ± 12	76 ± 9	95 ± 3	90 ± 7	68	9 ± 6	10 ± 5	11 ± 8	6 ± 4	14 ± 5	27 ± 14	14 ± 3	33 ± 16	49% and 49 ± 27%	
COc1cc(C#N)ccc1C1CC(O)C(COP(=O)(O)OP(=O)(O)OP(=O)(O)O)O1 (stereo not shown) [dCNMOTP]		92 ± 4	82 ± 24	91 ± 10	88 ± 9	91 ± 3	95 ± 2	103 ± 7	103 ± 1	101 ± 10	59	9 ± 1	22 ± 10	31 ± 14	13 ± 5	28 ± 7	35 ± 8	22 ± 7	25 ± 22	42% and 42 ± 18%	UBP retention (%) ([1]; Table 5, sequence context 1 (AXT), dTPT3TP 25 μM, dNaMTP or dCNMOTP 25 μM): 98%; UBP retention (%) ([1]; Table 5, sequence context 1 (AXT), dTPT3TP 25 μM, dNaMTP or dCNMOTP 25 μM, listed as dCNMO): 98 ± 7%; UBP retention (%) ([1]; Table 5, sequence context 1 (AXT), dTPT3TP 25 μM, dNaMTP or dCNMOTP 125 μM): 99 ± 8%; UBP retention (%) ([1]; Table 5, sequence context 2 (AXA), dTPT3TP 25 μM, dNaMTP or dCNMOTP 25 μM): 101 ± 10%; UBP retention (%) ([1]; Table 5, sequence context 2 (AXA), dTPT3TP 25 μM, dNaMTP or dCNMOTP 125 μM): 100 ± 10%; UBP retention (%) ([1]; Table 5, sequence context 3 (CXC), dTPT3TP 25 μM, dNaMTP or dCNMOTP 25 μM): 42%; UBP retention (%) ([1]; Table 5, sequence context 3 (CXC), dTPT3TP 25 μM, dNaMTP or dCNMOTP 25 μM, listed as dCNMO): 42 ± 18%; UBP retention (%) ([1]; Table 5, sequence context 3 (CXC), dTPT3TP 25 μM, dNaMTP or dCNMOTP 125 μM): 65%; UBP retention (%) ([1]; Table 5, sequence context 3 (CXC), dTPT3TP 25 μM, dNaMTP or dCNMOTP 125 μM, listed as dCNMO): 65 ± 7%; UBP retention (%) ([1]; Table 5, sequence context 4 (CXG), dTPT3TP 25 μM, dNaMTP or dCNMOTP 25 μM): 14 ± 5%; UBP retention (%) ([1]; Table 5, sequence context 4 (CXG), dTPT3TP 25 μM, dNaMTP or dCNMOTP 125 μM): 24%; UBP retention (%) ([1]; Table 5, sequence context 4 (CXG), dTPT3TP 25 μM, dNaMTP or dCNMOTP 125 μM, listed as dCNMO): 24 ± 13%
COc1cc(Cl)ccc1C1CC(O)C(COP(=O)(O)OP(=O)(O)OP(=O)(O)O)O1 (stereo not shown) [dClMOTP]		73 ± 10	84 ± 7	86 ± 6	83 ± 9	89 ± 5	96 ± 2	80 ± 20	92 ± 4	98 ± 4	61	9 ± 2	7 ± 4	12 ± 2	9 ± 1	15 ± 2	14 ± 5	8 ± 4	20 ± 7	21%	UBP retention (%) ([1]; context 3 (CXC), dTPT3TP 25 μM, dNaMTP analog 25 μM, listed as dCIMOTP): 21 ± 14%
C#Cc1cc(OC)c(C2CC(O)C(COP(=O)(O)OP(=O)(O)OP(=O)(O)O)O2)cc1F (stereo not shown) [dFEMOTP]																					UBP retention in vivo, in words [1, 23]: well retained in vivo when supplemented at high concentrations
Cc1cc2c(=S)n(C3CC(O)C(COP(=O)(O)OP(=O)(O)OP(=O)(O)O)O3)ccc2o1 (stereo not shown) [dFPT1]	significant UBP retention																				
COc1cc(C)ccc1C1CC(O)C(COP(=O)(O)OP(=O)(O)OP(=O)(O)O)O1 (stereo not shown) [dMMO2TP]		17 ± 8	54 ± 19	47 ± 20	68 ± 16	67 ± 16	88 ± 7	63 ± 31	86 ± 11	90 ± 4	19	5 ± 3	10 ± 3	13 ± 4	9 ± 3	16 ± 10	22 ± 10	19 ± 8	36 ± 12	45% and 45 ± 20%	
O=P(O)(O)OP(=O)(O)OP(=O)(O)OCC1OC(n2ccc3ccccc3c2=S)CC1O (stereo not shown) [dSICSTP]	significant UBP retention																				
O=P(O)(O)OP(=O)(O)OP(=O)(O)OCC1OC(n2ccc3ncccc3c2=S)CC1O (stereo not shown) [dSNICS]	significant UBP retention																				UBP retention in vivo, in words ([1]; dTPT3TP analog paired with dNaMTP): moderate retention at both low and high concentrations
Cc1cc2c(=S)n(C3CC(O)C(COP(=O)(O)OP(=O)(O)OP(=O)(O)O)O3)ccc2s1 (stereo not shown) [dTPT1]	significant UBP retention																				
O=P(O)(O)OP(=O)(O)OP(=O)(O)OCC1OC(n2ccc3ccsc3c2=S)CC1O (stereo not shown) [dTPT3TP]	significant UBP retention																				UBP retention ([1]; context 2 (AXA), dTPT3TP 10 μM paired with each of the four dNaMTP analogs at 25 μM): > 87%
Cc1cn([C@H]2C[C@H](O)[C@@H](COP(=O)(O)OP(=O)(O)OP(=O)(O)O)O2)c(=O)[nH]c1=O [dTTP, reference compound]																					kcat [2]: 0.085 s⁻¹ and 0.0853 ± 0.0127 s⁻¹
COc1cc(N=[N+]=[N-])ccc1C1CC(O)C(COP(=O)(O)OP(=O)(O)OP(=O)(O)O)O1 (stereo not shown) [dZMOTP]																					UBP retention in vivo, in words [1, 23]: well retained in vivo when supplemented at high concentrations
